According to patent US20080293712A1, “Benzo[C][2,7]Naphtyridine Derivatives, Methods of Making Thereof and Methods of Use Thereof” (WYETH, priority 2007, published 2008):
Where two headings read alike, the source gives them in different places.

Molecular target: T1, PDK-1 (Homo sapiens, UniProt O15530)
T1 sequence (O15530 1-556): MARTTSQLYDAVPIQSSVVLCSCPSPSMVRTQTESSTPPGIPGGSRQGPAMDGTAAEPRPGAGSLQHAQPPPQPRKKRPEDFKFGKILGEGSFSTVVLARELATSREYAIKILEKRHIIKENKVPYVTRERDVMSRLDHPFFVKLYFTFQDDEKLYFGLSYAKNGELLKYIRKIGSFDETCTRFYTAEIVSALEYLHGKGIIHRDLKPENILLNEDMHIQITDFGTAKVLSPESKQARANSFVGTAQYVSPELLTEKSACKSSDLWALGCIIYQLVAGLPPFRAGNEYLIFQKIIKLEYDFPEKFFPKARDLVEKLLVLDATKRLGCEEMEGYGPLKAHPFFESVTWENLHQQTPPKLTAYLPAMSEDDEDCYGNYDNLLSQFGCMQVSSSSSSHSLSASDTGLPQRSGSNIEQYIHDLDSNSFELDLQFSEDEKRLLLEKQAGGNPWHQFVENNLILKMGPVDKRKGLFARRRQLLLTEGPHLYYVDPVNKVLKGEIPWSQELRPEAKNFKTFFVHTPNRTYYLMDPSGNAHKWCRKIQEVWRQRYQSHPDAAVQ
Test: PDK-1 kinase inhibition ELISA assay (phosphorylation of His6-tagged SGK1 S422D by PDK-1)
Format: biochemical

[1] = PDK-1 ELISA, Table 11, read-out: Average IC50

| SMILES | IC50 [1] [nM] | IC50 [nM] |
| --- | --- | --- |
| COc1cc2ncc3c(N)nc(-c4cncc(Nc5ccccc5C(N)=O)c4)cc3c2cc1OC [Ib-186, 2-{[5-(4-amino-8,9-dimethoxybenzo[c][2,7]naphthyridin-2-yl)pyridin-3-yl]amino}benzamide] | 164 | – |
| COc1cc2ncc3c(N)nc(-c4cncc(Oc5ccc(N)nc5)c4)cc3c2cc1OC [Ib-172, 2-{5-[(6-Aminopyridin-3-yl)oxy]pyridin-3-yl}-8,9-dimethoxybenzo[c][2,7]naphthyridin-4-amine] | 151 | – |
| COc1cc2ncc3c(N)nc(-c4cncc(OC[C@@H](N)CNC(C)(C)c5ccccc5)c4)cc3c2cc1OC [Ib-90, (2S)-3-{[5-(4-amino-8,9-dimethoxybenzo[c][2,7]naphthyridin-2-yl)pyridin-3-yl]oxy}-N1-(1-methyl-1-phenylethyl)propane-1,2-diamine] | 7 | – |
| CC[C@@H](N)COc1cncc(-c2cc3c(cnc4cc(OC)c(OC)cc43)c(N)n2)c1 [Ib-18, 2-(5-{[(2R)-2-aminobutyl]oxy}pyridin-3-yl)-8,9-dimethoxybenzo[c]-2,7-naphthyridin-4-amine] | 2 | – |
| COc1ccc(Oc2cncc(-c3cc4c(cnc5cc(OC)c(OC)cc54)c(N)n3)c2)cc1 [Ib-210, 8,9-dimethoxy-2-[5-(4-methoxyphenoxy)pyridin-3-yl]benzo[c][2,7]naphthyridin-4-amine] | > 700 | – |
| COc1cc2ncc3c(N)nc(-c4cncc(Nc5ccncc5)c4)cc3c2cc1OC [Ib-201, 8,9-dimethoxy-2-[5-(pyridin-4-ylamino)pyridin-3-yl]benzo[c][2,7]naphthyridin-4-Amine] | 477 | – |
| COc1cc2ncc3c(N)nc(-c4cncc(C#CCN)c4)cc3c2cc1OC [Ib-252, 2-[5-(3-aminoprop-1-yn-1-yl)pyridin-3-yl]-8,9-dimethoxybenzo[c][2,7]naphthyridin-4-amine] | 53 | – |
| COc1cc2ncc3c(N)nc(-c4cncc(Nc5ccccc5NC(C)=O)c4)cc3c2cc1OC [Ib-185, N-(2-{[5-(4-amino-8,9-dimethoxybenzo[c][2,7]naphthyridin-2-yl)pyridin-3-yl]amino}phenyl)acetamide] | 37 | – |
| COc1cc2ncc3c(N)nc(-c4cncc(OC[C@@H](N)CNC(C)(C)c5cccnc5)c4)cc3c2cc1OC [Ib-93, (2S)-3-{[5-(4-amino-8,9-dimethoxybenzo[c][2,7]naphthyridin-2-yl)pyridin-3-yl]oxy}-N1-(1-methyl-1-pyridin-3-ylethyl)propane-1,2-diamine] | 6 | – |
| COc1cc2ncc3c(N)nc(-c4cncc(OC[C@@H](N)CNC5CCCC5)c4)cc3c2cc1OC [Ib-101, (2S)-3-{[5-(4-amino-8,9-dimethoxybenzo[c][2,7]naphthyridin-2-yl)pyridin-3-yl]oxy}-N1-cyclopentylpropane-1,2-diamine] | 92 | – |
| COc1cc2ncc3c(N)nc(-c4cncc(OC[C@@H](N)CNC5CCOCC5)c4)cc3c2cc1OC [Ib-96, (2S)-3-{[5-(4-amino-8,9-dimethoxybenzo[c][2,7]naphthyridin-2-yl)pyridin-3-yl]oxy}-N1-(tetrahydro-2H-pyran-4-yl)propane-1,2-diamine] | 26 | – |
| COc1cc2ncc3c(N)nc(-c4cncc(OC[C@@H](N)Cn5ccc(=N)cc5)c4)cc3c2cc1OC [Ib-82, 2-(5-{[(2S)-2-amino-3-(4-iminopyridin-1(4H)-yl)propyl]oxy}pyridin-3-yl)-8,9-dimethoxybenzo[c][2,7]naphthyridin-4-amine] | 92 | – |
| COc1cc2ncc3c(N)nc(-c4cncc(OC[C@@H](N)CSc5ccncc5)c4)cc3c2cc1OC [Ib-164, 2-(5-{[(2R)-2-amino-3-(pyridin-4-ylthio)propyl]oxy}pyridin-3-yl)-8,9-dimethoxybenzo[c][2,7]naphthyridin-4-amine] | 10 | – |
| COc1cc2ncc3c(N)nc(-c4cncc(OC[C@@H](N)CN5CCC(=O)CC5)c4)cc3c2cc1OC [Ib-4, 1-[(2S)-2-amino-3-{[5-(4-amino-8,9-dimethoxybenzo[c]-2,7-naphthyridin-2-yl)pyridin-3-yl]oxy}propyl]piperidin-4-one] | 29 | – |
| COc1cc2ncc3c(N)nc(-c4cncc(OC[C@@H](N)CNCCc5ccncc5)c4)cc3c2cc1OC [Ib-97, (2S)-3-{[5-(4-amino-8,9-dimethoxybenzo[c][2,7]naphthyridin-2-yl)pyridin-3-yl]oxy}-N1-(2-pyridin-4-ylethyl)propane-1,2-diamine] | 24 | – |
| COc1cc2ncc3c(N)nc(-c4cncc(OC[C@@H](N)COc5ccc(C(F)(F)F)cn5)c4)cc3c2cc1OC [Ib-145, 2-(5-{[(2R)-2-amino-3-{[5-(trifluoromethyl)pyridin-2-yl]oxy}propyl]oxy}pyridin-3-yl)-8,9-dimethoxybenzo[c][2,7]naphthyridin-4-amine] | 4 | – |

| SMILES | IC50 [1] [nM] | IC50 [nM] |
| --- | --- | --- |
| CC[C@H](N)COc1cncc(-c2cc3c(cnc4cc(OC)c(OC)cc43)c(N)n2)c1 [Ib-14, 2-(5-{[(2S)-2-aminobutyl]oxy}pyridin-3-yl)-8,9-dimethoxybenzo[c]-2,7-naphthyridin-4-amine] | 6 | – |
| COc1cc2ncc3c(N)nc(-c4cncc(Nc5ccccc5-c5ccccc5)c4)cc3c2cc1OC [Ib-204, 2-[5-(biphenyl-2-ylamino)pyridin-3-yl]-8,9-dimethoxybenzo[c][2,7]naphthyridin-4-Amine] | 51 | – |
| COc1cc2ncc3c(N)nc(-c4cncc(OC[C@@H](N)CN5CCN(c6ccncc6)CC5)c4)cc3c2cc1OC [Ib-107, 2-(5-{[(2S)-2-amino-3-(4-pyridin-4-ylpiperazin-1-yl)propyl]oxy}pyridin-3-yl)-8,9-dimethoxybenzo[c][2,7]naphthyridin-4-amine] | 42 | – |
| COc1cc2ncc3c(N)nc(-c4cncc(OC[C@@H](N)COc5ncccn5)c4)cc3c2cc1OC [Ib-149, 2-(5-{[(2R)-2-amino-3-(pyrimidin-2-yloxy)propyl]oxy}pyridin-3-yl)-8,9-dimethoxybenzo[c][2,7]naphthyridin-4-amine] | 7 | – |
| COc1cc2ncc3c(N)nc(-c4cncc(OC[C@@H](N)Cc5c[nH]c6ccccc56)c4)cc3c2cc1OC [Ib-13, 2-(5-{[(2S)-2-amino-3-(1H-indol-3-yl)propyl]oxy}pyridin-3-yl)-8,9-dimethoxybenzo[c]-2,7-naphthyridin-4-amine] | 6 | – |
| COc1cc2ncc3c(N)nc(-c4cncc(OC[C@@H](N)CSc5ccc(Cl)cc5Cl)c4)cc3c2cc1OC [Ib-163, 2-[5-({(2R)-2-amino-3-[(2,4-dichlorophenyl)thio]propyl}oxy)pyridin-3-yl]-8,9-dimethoxybenzo[c][2,7]naphthyridin-4-amine] | 12 | – |
| COCCN(C)c1cc2ncc3c(N)nc(-c4cncc(OC[C@@H](N)Cc5ccccc5)c4)cc3c2cc1OC [Ia-38, 2-(5-{[(2S)-2-amino-3-phenylpropyl]oxy}pyridine-3-yl)-9-methoxy-N^8-(2-methoxyethyl)-N^8-methylbenzo[c]-2,7-naphthyridin-4,8-diamine] | 69.5 | – |
| COc1cc2ncc3c(N)nc(-c4cncc(OC[C@@H](N)CN(C)c5cccc(Cl)c5)c4)cc3c2cc1OC [Ib-112, (2S)-3-{[5-(4-amino-8,9-dimethoxybenzo[c][2,7]naphthyridin-2-yl)pyridin-3-yl]oxy}-N1-(3-chlorophenyl)-N1-methylpropane-1,2-diamine] | 40 | – |
| COc1cc2ncc3c(N)nc(-c4cncc(OC[C@@H](N)CNc5ccc(C)c(F)c5)c4)cc3c2cc1OC [Ib-81, (2S)-3-{[5-(4-amino-8,9-dimethoxybenzo[c][2,7]naphthyridin-2-yl)pyridin-3-yl]oxy}-N1-(3-fluoro-4-methylphenyl)propane-1,2-diamine] | 22 | – |
| CCN(Cc1ccncc1)C[C@H](N)COc1cncc(-c2cc3c(cnc4cc(OC)c(OC)cc43)c(N)n2)c1 [Ib-21, (2S)-3-{[5-(4-amino-8,9-dimethoxybenzo[c]-2,7-naphthyridin-2-yl)pyridin-3-yl]oxy}-N1-ethyl-N1-(pyridin-4-ylmethyl)propane-1,2-diamine] | 7 | – |
| COc1cc2ncc3c(N)nc(-c4cncc(OC[C@@H](N)CNC5CCC5)c4)cc3c2cc1OC [Ib-100, (2S)-3-{[5-(4-amino-8,9-dimethoxybenzo[c][2,7]naphthyridin-2-yl)pyridin-3-yl]oxy}-N1-cyclobutylpropane-1,2-diamine] | 63 | – |
| C=CCOc1cncc(-c2cc3c(cnc4cc(OC)c(OC)cc43)c(N)n2)c1 [Ib-266, 2-(5-(Allyloxy)pyridin-3-yl)-8,9-dimethoxybenzo[c][2,7]naphthyridin-4-amine] | 18 | – |
| COc1cc2ncc3c(N)nc(-c4cncc(OC[C@@H](N)CNC(C)(C)c5ccccn5)c4)cc3c2cc1OC [Ib-94, (2S)-3-{[5-(4-amino-8,9-dimethoxybenzo[c][2,7]naphthyridin-2-yl)pyridin-3-yl]oxy}-N1-(1-methyl-1-pyridin-2-ylethyl)propane-1,2-diamine] | 4 | – |
| COc1cc2ncc3c(N)nc(-c4cc(F)cc(F)c4)cc3c2cc1OC [Ib-239, 2-(3,5-difluorophenyl)-8,9-dimethoxybenzo[c][2,7]naphthyridin-4-amine] | 1000 | – |
| COCCOc1cc2ncc3c(N)nc(N(C)C)cc3c2cc1OC [Ia-60, 9-Methoxy-8-(2-methoxyethoxy)-N^2,N^2-dimethylbenzo[c]-2,7-naphthyridine-2,4-diamine] | – | 739 |
| COc1cc2ncc3c(N)nc(-c4cncc(Nc5ccccc5N5CCOCC5)c4)cc3c2cc1OC [Ib-184b, 8,9-dimethoxy-2-{5-[(2-morpholin-4-ylphenyl)amino]pyridin-3-yl}benzo[c][2,7]naphthyridin-4-amine] | 74 | – |
